Measured values from patent US8293781B2, “Indole derivatives having cPLA2 inhibiting activity and applications and production methods of the same” (Daiichi Sankyo Company, Limited, priority 2007, dated 2012).
Where a name gives a salt, the structure may show the parent alone.

How the values were obtained:
[1] = test system: guinea pig antigen induced bronchial asthma model; assay: Guinea pig antigen induced bronchial asthma model: airway resistance (IAR, LAR); format: in vivo; conditions: for IAR suppression rate (airway resistance): immediate asthmatic response, 1 minute after challenge; for LAR suppression rate (airway resistance): late asthmatic response, AUC 4 to 8 hours
Protocol: (§1) Hartley male guinea pigs (Kyudo Co., Ltd.) were sensitized by inhaling the aerosolized 1% OVA-containing physiological saline solution for consecutive 8 days. One week after the final sensitization, antigen antibody reaction was elicited by inhaling the aerosolized 2% OVA-containing physiological saline solution. 24 hours and 1 hour before antigen challenge, metyrapone (10 mg/kg, 1.0 ml/kg) was injected to the hind limb peripheral vein. 30 minutes before antigen challenge, pyrilamine maleate (10 mg/kg, 1.0 ml/kg) was administered intraperitoneally. The test compound (5 mg/kg and 20 mg/kg, 5.0 ml/kg) was administered once a day from the day after the final sensitization to the day before challenge. On the day of challenge, it was administered orally 1 hour before challenge and 8 hours after challenge. Note that the number of mice used in the test was made eight per group.
The airway resistance (sRaw) was measured using a total respiratory function analysis system (Pulmos-I, made by M.I.P.S.) before antigen challenge, 1 minute after finishing the antigen challenge, and 2, 4, 5, 6, 7, 8, and 22 to 24 hours after antigen challenge. […] The late asthmatic response (LAR) was evaluated by calculating the AUC from the rate of change 4 to 8 hours after inducement based on the measurement values and finding the value obtained by subtratcting the AUC of each compound administered group from the AUC of the vehicle administered group with the control inhibition rate as a percent (%) with respect to the value of the vehicle administered group. The rates of suppression of typical compounds with respect to the increases in airway resistances in immediate asthmatic response (IAR) and late asthmatic response (LAR) are shown in Table 8.

[2] = test system: guinea pig antigen induced bronchial asthma model; assay: Guinea pig antigen induced bronchial asthma model: airway hyperreactivity to acetyl choline; format: in vivo; conditions: 22 to 24 hours after inducement
Protocol: as §1
The airway hyperreactivity was measured 22 to 24 hours after inducement. Physiological saline solution and acetyl choline in 0.0625, 0.125, 0.25, 0.5, 1, and 2 mg/ml amounts in physiological saline solutions were successively nebulized and made to be inhaled by guinea pigs 1 minute at a time each, then the sRaw was measured by a total respiratory function analysis system (Pulmos-I, made by M.I.P.S.) The results of evaluation of typical compounds are shown in Table 9 for different acetyl choline concentrations (PC100Ach, mg/ml) inducing 100% airway resistance.

[3] = test system: guinea pig antigen induced bronchial asthma model; assay: Guinea pig antigen induced bronchial asthma model: infiltrating cells in BALF; format: in vivo
Protocol: as §1
The number of cells in a bronchial alveolar lavage fluid was counted after measurement of the airway hyperreactivity. Each guinea pig was exsanguinated under anesthesia, its chest was opened, a cannular was inserted into the trachea, then physiological saline was injected into and sucked out from the lungs to recover the bronchial alveolar lavage fluid (BALF). The BALF was centrifugally separated, the obtained precipitate (pellets) was suspended in physiological saline and the total number of cells per 1 μl was calculated by an automatic blood cell counting system (Sysmex F-820). The total number of cells was calculated, then the sample was again centrifugally separated and the obtained pellets were hemolyzed, diluted, centrifuged, and dried, then stained by May-Greenwald's-Giemsa dye. Using a microscope, the ratios of the macrophages, eosinophil granulocytes, neutrophils, and lymphocytes to the total blood cell count (total number of cells) were found and the ratios used to calculate the numbers of cells per μl. The inhibiting rate was found as a percent (%) of the value of the number of cells of the control vehicle administered group minus the number of cells of each compound administered group with respect to the value of the number of cells of the vehicle administered group minus the number of cells of the negative control saline inhalation group.

[4] = test system: rats; assay: Repeated oral administration to rats once a day over two weeks (toxicity); format: in vivo, rat; conditions: once a day over two weeks repeatedly orally
Protocol: Further, the present invention compound (I) or its salts or their solvates have low toxicity. In experiments administering the compound of Example 231 of the present invention to rats once a day over two weeks repeatedly orally, the nontoxic amount was 180 mg/kg/day.

With O=C(O)CCc1ccc2c(c1)c(CCc1ccccc1)cn2-c1ccc(OC(F)F)cc1 [Example 190, 3-{1-[4-(difluoromethoxy)phenyl]-3-(2-phenylethyl)-1H-indol-5-yl}propanoic acid 2-amino-2-(hydroxymethyl)propane-1,3-diol salt (1:1)] the “IAR suppression rate (airway resistance)” value ([1]; 5 mg/kg oral) was 2%, the “LAR suppression rate (airway resistance)” value ([1]; 5 mg/kg oral) was 46% and the “IAR suppression rate (airway resistance)” value ([1]; 20 mg/kg oral) was 2%. For the same compound, the “LAR suppression rate (airway resistance)” value ([1]; 20 mg/kg oral) was 42%, the “PC100ACh (acetyl choline concentration inducing 100% airway resistance)” value ([2]; 5 mg/kg oral) was 0.57 mg/mL and the “PC100ACh (acetyl choline concentration inducing 100% airway resistance)” value ([2]; 20 mg/kg oral) was 0.50 mg/mL. The “Inhibitory rate of infiltrating cells in BALF: Eosinophils” value (shortened to “Inhibitory rate … Eosinophils”) ([3]; 5 mg/kg oral) was 41%, the “Inhibitory rate of infiltrating cells in BALF: Lymphocytes” value (shortened to “Inhibitory rate … Lymphocytes”) ([3]; 5 mg/kg oral) was 30% and the “Inhibitory rate of infiltrating cells in BALF: Macrophages” value (shortened to “Inhibitory rate … Macrophages”) ([3]; 5 mg/kg oral) was 66%. For the same compound, the “Inhibitory rate of infiltrating cells in BALF: Neutrophils” value (shortened to “Inhibitory rate … Neutrophils”) ([3]; 5 mg/kg oral) was 0%, the “Inhibitory rate of infiltrating cells in BALF: Total number of cells” value (shortened to “Inhibitory rate … of cells”) ([3]; 5 mg/kg oral) was 33% and the “Inhibitory rate … Eosinophils” value ([3]; 20 mg/kg oral) was 76%. The “Inhibitory rate … Lymphocytes” value ([3]; 20 mg/kg oral) was 42%, the “Inhibitory rate … Macrophages” value ([3]; 20 mg/kg oral) was 76% and the “Inhibitory rate … Neutrophils” value ([3]; 20 mg/kg oral) was 37%. For the same compound, the “Inhibitory rate … of cells” value ([3]; 20 mg/kg oral) was 62%.
O=C(O)CCc1ccc2c(c1)c(CCc1ccccc1)cn2-c1ccc(OCCO)cc1 [Example 229, 3-{1-[4-(2-hydroxyethoxy)phenyl]-3-(2-phenylethyl)-1H-indol-5-yl}propanoic acid 2-amino-2-(hydroxymethyl)propane-1,3-diol salt (1:1)] was tested, and the “IAR suppression rate (airway resistance)” value ([1]; 5 mg/kg oral) was 15%, the “LAR suppression rate (airway resistance)” value ([1]; 5 mg/kg oral) was 22% and the “IAR suppression rate (airway resistance)” value ([1]; 20 mg/kg oral) was 33%. For the same compound, the “LAR suppression rate (airway resistance)” value ([1]; 20 mg/kg oral) was 37%, the “PC100ACh (acetyl choline concentration inducing 100% airway resistance)” value ([2]; 5 mg/kg oral) was 0.47 mg/mL and the “PC100ACh (acetyl choline concentration inducing 100% airway resistance)” value ([2]; 20 mg/kg oral) was 0.74 mg/mL. The “Inhibitory rate … Eosinophils” value ([3]; 5 mg/kg oral) was 51%, the “Inhibitory rate … Lymphocytes” value ([3]; 5 mg/kg oral) was 11% and the “Inhibitory rate … Macrophages” value ([3]; 5 mg/kg oral) was 58%. The “Inhibitory rate … Neutrophils” value ([3]; 5 mg/kg oral) was 0%, the “Inhibitory rate … of cells” value ([3]; 5 mg/kg oral) was 30% and the “Inhibitory rate … Eosinophils” value ([3]; 20 mg/kg oral) was 46%. For the same compound, the “Inhibitory rate … Lymphocytes” value ([3]; 20 mg/kg oral) was 12%, the “Inhibitory rate … Macrophages” value ([3]; 20 mg/kg oral) was 46% and the “Inhibitory rate … Neutrophils” value ([3]; 20 mg/kg oral) was 16%. For the same compound, the “Inhibitory rate … of cells” value ([3]; 20 mg/kg oral) was 35%.
For O=C(O)CCc1ccc2c(c1)c(CCc1ccccc1)cn2-c1ccc(Oc2ccccc2)cc1 [Example 231, 3-[1-(4-phenoxyphenyl)-3-(2-phenylethyl)-1H-indol-5-yl]propanoic acid 2-amino-2-(hydroxymethyl)propane-1,3-diol salt (1:1)], the “IAR suppression rate (airway resistance)” value ([1]; 5 mg/kg oral) was 21%, the “LAR suppression rate (airway resistance)” value ([1]; 5 mg/kg oral) was 45% and the “IAR suppression rate (airway resistance)” value ([1]; 20 mg/kg oral) was 59%. For the same compound, the “LAR suppression rate (airway resistance)” value ([1]; 20 mg/kg oral) was 78%, the “PC100ACh (acetyl choline concentration inducing 100% airway resistance)” value ([2]; 5 mg/kg oral) was 1.02 mg/mL and the “PC100ACh (acetyl choline concentration inducing 100% airway resistance)” value ([2]; 20 mg/kg oral) was 1.09 mg/mL. For the same compound, the “Inhibitory rate … Eosinophils” value ([3]; 5 mg/kg oral) was 58%, the “Inhibitory rate … Lymphocytes” value ([3]; 5 mg/kg oral) was 45% and the “Inhibitory rate … Macrophages” value ([3]; 5 mg/kg oral) was 80%. For the same compound, the “Inhibitory rate … Neutrophils” value ([3]; 5 mg/kg oral) was 38%, the “Inhibitory rate … of cells” value ([3]; 5 mg/kg oral) was 58% and the “Inhibitory rate … Eosinophils” value ([3]; 20 mg/kg oral) was 69%. For the same compound, the “Inhibitory rate … Lymphocytes” value ([3]; 20 mg/kg oral) was 55%, the “Inhibitory rate … Macrophages” value ([3]; 20 mg/kg oral) was 85% and the “Inhibitory rate … Neutrophils” value ([3]; 20 mg/kg oral) was 64%. The “Inhibitory rate … of cells” value ([3]; 20 mg/kg oral) was 72% and the nontoxic amount [4] was 180 mg/kg/day.
